# Data reported in patent US5639734A, “Disaccharide inflammation inhibitors and uses thereof” (priority 1994, dated 1997).
# Entries after “also recorded” stand apart in the source; their conditions may differ. Like-named read-outs stand apart in the source and are kept apart here.
# How the values were obtained:
# [1] = test system: Chinese hamster ovary cells; test: Uptake of glycosides by Chinese hamster ovary cells, fluorescence assay; conditions: for Uptake: relative to Xylβ-0-2-naphthol 1.0 unit; for Uptake (in words): CHO cells, 37° C., FIG. 1 and 2 (100 μM in FIG. 2)
# Protocol: Confluent monolayers of Chinese hamster ovary cells were incubated with the indicated concentrations of Xylβ-0-2-naphthol at 37° C. for 30 minutes. The amount of glycoside taken up was determined by fluorescence assay.
# The various glycosides were added (100 μM) to confluent Chinese hamster ovary cell monolayers and at the times indicated, the amount of glycoside taken up was quantitated by fluorescence assay. Filled circles: Xylβ-0-2-naphthol; filled square: Galβ-0-2-naphthol; unfilled triangle: Galβ1→4Xylβ-0-2-naphthol; filled triangle: Galβ1 →3Galβ0-2-naphthol.
# Compounds were dissolved in DMSO and added to growth medium such that the final concentration of vehicle was 0.5% (v/v). Confluent cells were incubated with supplemented growth medium at 37° C. for various times. The cultures were placed on ice, the medium was aspirated and the cells were washed three times with cold PBS containing 1 mg/ml of bovine serum albumin. Cells were solubilized in a small volume of 0.1M NaOH and the extracts were neutralized with one mole equivalent of acetic acid. After centrifuging the samples, the supernatants were applied to Sep-Pak Plus C18 cartridges (Waters Associates) and washed with water (10 ml) and 20% (v/v) methanol in water (5 ml). Bound material was eluted with 5 ml of 40% (v/v) methanol in water and concentrated to dryness. The residue was dissolved in methanol and its fluoresence was measured (SLM-Aminco Instruments). The excitation and emission wavelengths for 2-naphthol derivatives were 293 nm and 395 nm, respectively. Phenanthrol derivatives were excited at 310 nm and the emission was measured at 365 nm.
# Animal cells take up β-D-xylosides and prime glycosaminoglycan chains with great efficiency. For priming to occur, the glycoside must pass though the plasma membrane and enter the Golgi where the glycosyltransferases reside. […] Xylβ-0-2-naphthol has three hydroxyl groups, whereas Gal-0-2-naphtholhas four.
# [2] = test system: pgsA-745 cells (xylosyltransferase deficient Chinese hamster ovary cells); test: Priming of [35S]glycosaminoglycan chains in xylosyltransferase-deficient CHO mutant pgsA-745 cells; assay type: cell-based; conditions: FIG. 3, 5 hours at 37° C.; for Priming of glycosaminoglycan chains (in words): up to 500 μM; for minimal effective concentration: Cricetulus griseus, read-out: Concentration at which glycosaminoglycan chains are primed
# Protocol: Various compounds at the indicated concentrations were provided to confluent Chinese hamster ovary cells in a 96 well plate. Glycosaminoglycan synthesis was measured by autoradiography of [^35 S]-glycosaminoglycan collected on a postively charged nylon membrane. 1: Xylβ-0-2-naphthol; 2: Xylβ1→6Gal-0-2-naphthol; 3: Xylβ1→6Gal(Me)-0-2-naphthol; 4: Xylβ1→6Gal(Me)2 -0-2-naphthol; 5: Xylβ1→6Gal(Me)3 -0-2-naphthol; 6: Xyl(Ac)3 β-0-2-naphthol; 7:Xyl(Ac)3 β1→6Gal(Ac)3 -0-2-naphthol.
# Priming of glycosaminoglycan chains was measured in pgsA-745 cells deficient in xylosyltransfersase. The cells were grown to confluence in 96-well microtiter plates (Falcon). Fresh medium (0.2 ml) containing 50 μCi/ml of H2^35 SO4 (25-40 Ci/mg) and the test compounds were added to the wells. The top row of wells contained […] of glycoside and each subsequent row contained a serial dilution (1:3^n, v/v). Cells were incubated for 5 hours at 37° C. and solubilized by adding 20 μl of 0.5M NaOH. The individual wells were adjusted to 0.2% (w/v) Zwittergent 3-12, 25 μg/ml chondroitin sulfate, 0.2M acetic acid and 10 mM Na2 SO4. The samples were transferred to a GeneScreen Plus membrane (Dupont-NEN) placed on top of a piece of 1Chr paper on a vacuum Minifold (Schleicher & Schuell). A wash solution of 0.2% (w/v) Zwittergent 3-12, 0.2M acetic acid and 10 mM Na2 SO4 (0.5 ml) was passed through each well. The membranes were removed from the Minifold, soaked for 5 minutes in 20 ml of wash solution, air-dried and exposed to RX X-ray film for 10-18 hours.
# Therefore, uptake of the disaccharide was measured indirectly by the determining the incorporation of ^35 SO4 into glycosaminoglycan chains. To distinguish glycosaminoglycans produced on the glycoside from those made on endogenous proteoglycans, a Chinese hamster ovary cell mutant deficient in xylosyltransferase was made. […] [^35 S]glycosaminoglycan synthesis was measured by incubating mutant cells in a 96 well plate with glycoside derivatives at different doses. The cells and spent media were then transferred to a positively charged nylon membrane to detect newly made chains by autoradiography.
# [3] = test system: F9 cells; test: Uptake of disaccharides by F9 cells, fluorescence assay; assay type: in vitro ADME, mouse; conditions: for Uptake: Table I, control value without glycoside (1.0) subtracted
# [4] = test system: F9 cells; test: Priming of [3H]GlcN-labeled oligosaccharides in F9 cells; assay type: cell-based, mouse; conditions: for Priming of oligosaccharides (in words) / Priming: F9 cells; for Priming of oligosaccharides (in words): [3H]GlcN; for Priming: Table I, per μg cell protein, control value (30) subtracted; for Fraction of labeled oligosaccharides that were charged (bound to QAE-Sephadex): anion-exchange chromatography
# [5] = test system: sLe^x on HL-60 cells; test: FACS of sLe^x expression on HL-60 cells with mAb CSLEX-1; assay type: cell-based, human; conditions: for Inhibition of sialyl Lewis X formation in HL-60 cells (in words): concentration not given
# [6] = test system: HL-60 adhesion to activated human umbilical vein endothelial cells (HUVEC); test: Adhesion of HL-60 cells to TNF-α-activated HUVEC; assay type: cell-based; conditions: for Inhibition of HL-60 / leukocyte adhesion (in words): TNF-α-treated HUVEC, concentration not given
# [7] = test system: basic fibroblast growth factor; conditions: background; cited from earlier work
# [8] = listed as peracetylated Galβ1→4GlcNAcβ-0-2-naphthalenemethanol
# [9] = listed as acetylated Galβ1→4GlcNAcβ-0-2-naphthalenemethanol
compound,measurement,setting,value
OC[C@H]1O[C@@H](O[C@H]2[C@@H](O)[C@@H](CO)O[C@@H](Oc3cc4ccccc4c4ccccc34)[C@@H]2O)[C@H](O)[C@@H](O)[C@H]1O [Galβ1→3Galβ-0-9-phenanthrol],Uptake,[1],less than 0.1 unit of fluorescence
O[C@H]1[C@@H](O)[C@@H](CO[C@@H]2OC[C@@H](O)[C@H](O)[C@H]2O)O[C@@H](Oc2ccc3ccccc3c2)[C@@H]1O [Xylβ1→6Galβ-0-2-naphthol],Priming of glycosaminoglycan chains (in words),[2],did not prime [^35 S]-glycosaminoglycans even at 500 μM
Xylβ1→6Gal(Me)2 -0-2-naphthol,Concentration at which glycosaminoglycan chains are primed,[2],2 to 6 µM
"CC(=O)N[C@H]1[C@H](OCc2ccc3ccccc3c2)O[C@H](COC(C)=O)[C@@H](O[C@@H]2O[C@H](COC(C)=O)[C@H](OC(C)=O)[C@H](OC(C)=O)[C@H]2OC(C)=O)[C@@H]1OC(C)=O [AcLacNAc-NM, acetylated Galβ1→4GlcNAcβ-O-naphthalenemethanol]",Uptake (in words),[3],nearly as well as non-acetylated pentosides linked to naphthol
same,Uptake,[3],6.4 Arbitray units
same,Uptake (in words),[3]; [8],nearly as efficient as Xylβ-0-napthol
same,Priming of oligosaccharides (in words),[4],primed oligosaccharides in F9 cells; also recorded: A significant lag phase preceded priming of oligosaccharides
same,Priming of oligosaccharides (in words),[4]; listed as acetylated Galβ1→4GlcNAcβ-O-naphthalenemethanol,prime oligosaccharides in cultured cells
same,Priming of oligosaccharides (in words),[4]; [8],A large amount of labeled material was generated
same,Priming,[4],250 ^3 H-cpm/μg
same,Fraction of labeled oligosaccharides that were charged (bound to QAE-Sephadex),[4],About 25%
same,Fraction of labeled oligosaccharides that were charged (bound to QAE-Sephadex),[4]; [8],approximately 25%
same,"sLe^x expression on the cell surface, FACS (in words)","[5]; 200 μM acetylated sugars, 40 hours / two days, mAb CSLEX-1",the cell population shifted to a lower mean fluorescence
same,Inhibition of sialyl Lewis X formation in HL-60 cells (in words),[5],inhibit the formation of sialyl Lewis X
same,Inhibition of sialyl Lewis X formation in HL-60 cells (in words),[5]; [9],inhibition of sLe^x expression on the surface of HL-60 cells
same,Fold reduction in attached HL-60 cells,"[6]; 100 μM AcLacNAc-NM, TNF-α HUVEC, static",8 -fold
same,Inhibition of HL-60 / leukocyte adhesion (in words),[6],reduced adhesion
same,Inhibition of HL-60 / leukocyte adhesion (in words),[6]; [9],The decrease in sLe^x expression had a corresponding effect on cell adhesion
Xylβ1→6Gal(Me)-0-2-naphthol,Concentration of maximum effect on 35S-glycosaminoglycan synthesis,[2],approximately 60 μM
same,Priming of glycosaminoglycan chains (in words),[2],Higher concentrations were less effective
CO[C@H]1[C@@H](OC)[C@@H](CO[C@@H]2OC[C@@H](O)[C@H](O)[C@H]2O)O[C@@H](Oc2ccc3ccccc3c2)[C@@H]1OC [Xylβ1→6Gal(Me)3-0-2-naphthol],minimal effective concentration,[2],< 1 µM
same,Priming of glycosaminoglycan chains (in words),[2],nearly as well as Xylβ-0-2-napthol
CC(=O)O[C@@H]1[C@@H](OC(C)=O)[C@H](Oc2ccc3ccccc3c2)OC[C@H]1OC(C)=O [Xyl(Ac)3 β-0-2-naphthol],Priming of glycosaminoglycan chains (in words),[2],somewhat less effectively than the non-acetylated compound
OC[C@H]1O[C@@H](Oc2cc3ccccc3c3ccccc23)[C@H](O)[C@@H](O)[C@H]1O [Galβ-0-9-phenanthrol],Uptake,[1],4.2 unit of fluorescence
"O[C@@H]1[C@@H](O)[C@@H](Oc2ccc3ccccc3c2)OC[C@@H]1O [L-Araβ-0-2-naphthol, L-Araα-0-2-naphthol]",Uptake (in words),[1],diffuse more readily than hexosides
same,Uptake,[1],0.8 unit of fluorescence
O[C@@H]1[C@@H](O)[C@H](Oc2ccc3ccccc3c2)OC[C@H]1O [Xylβ-0-2-naphthol],Uptake (in words),[1],diffuse more readily than hexosides; also recorded: occurs by diffusion; also recorded: depended on concentration and did not saturate
same,Time for uptake to reach a plateau,"[1]; FIG. 2, 100 μM",less than one minute
same,Uptake,[1],1.0 unit of fluorescence
same,Priming of glycosaminoglycan chains (in words),[2],primed chains efficiently
same,Uptake,[3],9.0 Arbitray units
same,Binding of primed heparan sulfate chains to basic fibroblast growth factor (in words),[7],will bind to basic fibroblast growth factor
OC[C@H]1O[C@@H](Oc2ccc3ccccc3c2)[C@H](O)[C@@H](O)[C@H]1O [Galβ-0-2-naphthol],Uptake (in words),[1],slow and reached a lower steady-state level
same,Uptake,[1],0.3 unit of fluorescence
"CC(=O)N[C@H]1[C@H](OCc2ccc3ccccc3c2)O[C@H](CO)[C@@H](O[C@@H]2O[C@H](CO)[C@H](O)[C@H](O)[C@H]2O)[C@@H]1O [Galβ1→4GlcNAcβ-0-naphthalenemethanol, Galβ1→4GlcNAcβ-0-2-naphthalenemethanol]",Uptake (in words),[3],very limited
same,Uptake,[3],0.5 Arbitray units
same,Priming of oligosaccharides (in words),[4],increases with time and does not saturate for several hours
same,Priming,[4],20 ^3 H-cpm/μg
OC[C@H]1O[C@@H](O[C@@H]2CO[C@@H](Oc3ccc4ccccc4c3)[C@H](O)[C@H]2O)[C@H](O)[C@@H](O)[C@H]1O [Galβ1→4Xylβ-0-2-naphthol],Uptake (in words),[1],not taken up al all
"CC(=O)N[C@H]1[C@H](O[C@H]2[C@@H](OC(C)=O)[C@@H](COC(C)=O)O[C@@H](OCc3ccc4ccccc4c3)[C@@H]2OC(C)=O)O[C@H](COC(C)=O)[C@@H](OC(C)=O)[C@@H]1OC(C)=O [AcGlcNAcGal-NM, Peracetylated GlcNAcβ1-3Galβ-0-naphthalenemethanol]",Fold [3H]GlcN-labeled oligosaccharides primed compared with AcLacNAc-NM,[4]; >25 μM,~10 -fold
same,Priming of oligosaccharides (in words),[4],much more active than AcLacNAc-NM at low dose
same,Priming of oligosaccharides (in words),[4]; listed as Acetylated GlcNAcβ1→3Galβ-O-naphthalenemethanol,primes oligosaccharides and inhibits cell adhesion more efficiently than acetylated Galβ1→4GlcNAcβ-X-naphthalenemethanol
same,Priming of oligosaccharides (in words),[4]; listed as acetylated GlcNAcβ1→3Galβ-O-naphthalenemethanol,prime oligosaccharides in cultured cells
same,Inhibition of sialyl Lewis X formation in HL-60 cells (in words),[5],inhibit the formation of sialyl Lewis X
same,Inhibition of HL-60 / leukocyte adhesion (in words),[6],inhibits cell adhesion more efficiently than acetylated Galβ1→4GlcNAcβ-X-naphthalenemethanol
OC[C@H]1O[C@@H](O[C@H]2[C@@H](O)[C@@H](CO)O[C@@H](Oc3ccc4ccccc4c3)[C@@H]2O)[C@H](O)[C@@H](O)[C@H]1O [Galβ1→3Galβ-0-2-naphthol],Uptake (in words),[1],not taken up al all
"CC(=O)O[C@H]1[C@@H](OC(C)=O)[C@@H](CO[C@@H]2OC[C@@H](OC(C)=O)[C@H](OC(C)=O)[C@H]2OC(C)=O)O[C@@H](Oc2ccc3ccccc3c2)[C@@H]1OC(C)=O [peracetylated Xylβ1→6Galβ-0-2-naphthol, Xyl(Ac)3 β1→6Gal(Ac)3-0-2-naphthol]",minimal effective concentration,[2],~6 µM
